One assay deals with human CSNK1A1 (Homo sapiens (Human), UniProt P48729). Description: CSNK1A1 assay (ADP-Glo, 1 μM ATP). Type of assay: biochemical. To be noted: median, read-out: CSNK1A1 Low ATP IC50 [mol/l] (median). As to the method: CSNK1A1-inhibitory activity of compounds of the present invention in presence of 1 μM adenosine-tri-phosphate (ATP) was quantified employing the CSNK1A1 assay as described in the following paragraphs. In essence, the enzyme activity is measured by quantification of the adenosine-di-phosphate (ADP), which is generated as a co-product of the enzyme reaction, via the “ADP-Glo™ Kinase Assay” kit from the company Promega. This detection system works as follows: In a first step the ATP not consumed in the kinase reaction is quantitatively converted to CAMP employing an adenylate cyclase (“ADP-Glo-reagent”), then the adenylate cyclase is stopped and the ADP generated in the kinase reaction converted to ATP which generates in a luciferase-based reaction a glow-luminescence signal (“Kinase Detection Reagent”).
human CSNK1A1, sequence (P48729 whole entry): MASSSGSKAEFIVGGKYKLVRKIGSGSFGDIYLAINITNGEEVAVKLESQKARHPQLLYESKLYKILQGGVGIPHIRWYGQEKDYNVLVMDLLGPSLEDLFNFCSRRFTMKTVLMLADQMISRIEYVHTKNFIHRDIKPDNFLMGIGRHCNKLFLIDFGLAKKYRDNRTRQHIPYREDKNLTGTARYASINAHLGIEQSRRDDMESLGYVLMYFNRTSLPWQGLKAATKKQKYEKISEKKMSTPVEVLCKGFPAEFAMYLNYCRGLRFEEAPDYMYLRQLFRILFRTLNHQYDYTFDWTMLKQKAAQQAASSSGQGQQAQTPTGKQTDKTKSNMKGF
Recombinant fusion protein of N-terminal Glutathion-S-Transferase (GST) and full-length human CSNK1A1, expressed by baculovirus infected insect cells and purified via Glutathion affinity chromatography, was purchased from Life Technologies (product no. PV4174) and used as enzyme. As substrate for the kinase reaction the biotinylated peptide biotin-Ahx-KRRRAL-pS-VASLPGL (C-terminus in amide form) was used which can be purchased e.g. from the company Biosyntan (Berlin-Buch, Germany).
For the assay 50 nl of a 100-fold concentrated solution of the test compound in DMSO was pipetted into a white 1536-well microtiter plate (Greiner Bio-One, Frickenhausen, Germany), 2 μL of a solution of CSNK1A1 in aqueous assay buffer [50 mM HEPES pH 7.5, 10% (v/v) glycerol, 10 mM MgCl2, 50 mM NaCl, 1 mM dithiothreitol, 0.01% (w/v) bovine serum albumin, 0.01% (v/v) Triton X-100] were added and the mixture was incubated for 15 min at 22° C. to allow pre-binding of the test compounds to the enzyme before the start of the kinase reaction. Then the kinase reaction was started by the addition of 3 μL of a solution of ATP (1.67 μM=>final conc. in the 5 μL assay volume is 1 μM) and peptide substrate (50 μM=>final conc. in the 5 μL assay volume is 30 μM) in assay buffer and the resulting mixture was incubated for a reaction time of 30 min at 22° C. The concentration of CSNK1A1 was adjusted depending of the activity of the enzyme lot and was chosen appropriate to have the assay in the linear range, a typical concentrations are about 0.0375 ng/μL. The reaction was stopped by the addition of 2.5 μL of “ADP-Glo-reagent” (1:1.5 fold diluted with water) and the resulting mixture was incubated at 22° C. for 1 h to convert the ATP not consumed in the kinase reaction completely to CAMP. Subsequently 2.5 μL of the “kinase detection reagent” (1.2 fold more concentrated than recommended by the producer) were added, the resulting mixture was incubated at 22° C. for 1 h and then the luminescence measured with a suitable measurement instrument (e.g. Viewlux™ from Perkin-Elmer). The amount of emitted light was taken as a measure for the amount of ADP generated and thereby for the activity of the CSNK1A1.
The data were normalised (enzyme reaction without inhibitor=0% inhibition, all other assay components but no enzyme=100% inhibition).
On the technique in general: ADP-Glo turns the ADP formed in a reaction into a luminescent signal.

The target in assay [1] is human Ether-a-go-go-Related Gene (hERG) potassium channel (Homo sapiens (Human), UniProt Q12809). Description: hERG inhibition assay, automated voltage clamp. Format: cell-based. As to conditions: HEK293 cells stably expressing hERG alpha subunit. The procedure: Following harvest, cells were transferred to the cell reservoir of a 384 channel automated patch clamp device and stored there at 20° C. until usage.
human Ether-a-go-go-Related Gene (hERG) potassium channel, sequence (Q12809 whole entry): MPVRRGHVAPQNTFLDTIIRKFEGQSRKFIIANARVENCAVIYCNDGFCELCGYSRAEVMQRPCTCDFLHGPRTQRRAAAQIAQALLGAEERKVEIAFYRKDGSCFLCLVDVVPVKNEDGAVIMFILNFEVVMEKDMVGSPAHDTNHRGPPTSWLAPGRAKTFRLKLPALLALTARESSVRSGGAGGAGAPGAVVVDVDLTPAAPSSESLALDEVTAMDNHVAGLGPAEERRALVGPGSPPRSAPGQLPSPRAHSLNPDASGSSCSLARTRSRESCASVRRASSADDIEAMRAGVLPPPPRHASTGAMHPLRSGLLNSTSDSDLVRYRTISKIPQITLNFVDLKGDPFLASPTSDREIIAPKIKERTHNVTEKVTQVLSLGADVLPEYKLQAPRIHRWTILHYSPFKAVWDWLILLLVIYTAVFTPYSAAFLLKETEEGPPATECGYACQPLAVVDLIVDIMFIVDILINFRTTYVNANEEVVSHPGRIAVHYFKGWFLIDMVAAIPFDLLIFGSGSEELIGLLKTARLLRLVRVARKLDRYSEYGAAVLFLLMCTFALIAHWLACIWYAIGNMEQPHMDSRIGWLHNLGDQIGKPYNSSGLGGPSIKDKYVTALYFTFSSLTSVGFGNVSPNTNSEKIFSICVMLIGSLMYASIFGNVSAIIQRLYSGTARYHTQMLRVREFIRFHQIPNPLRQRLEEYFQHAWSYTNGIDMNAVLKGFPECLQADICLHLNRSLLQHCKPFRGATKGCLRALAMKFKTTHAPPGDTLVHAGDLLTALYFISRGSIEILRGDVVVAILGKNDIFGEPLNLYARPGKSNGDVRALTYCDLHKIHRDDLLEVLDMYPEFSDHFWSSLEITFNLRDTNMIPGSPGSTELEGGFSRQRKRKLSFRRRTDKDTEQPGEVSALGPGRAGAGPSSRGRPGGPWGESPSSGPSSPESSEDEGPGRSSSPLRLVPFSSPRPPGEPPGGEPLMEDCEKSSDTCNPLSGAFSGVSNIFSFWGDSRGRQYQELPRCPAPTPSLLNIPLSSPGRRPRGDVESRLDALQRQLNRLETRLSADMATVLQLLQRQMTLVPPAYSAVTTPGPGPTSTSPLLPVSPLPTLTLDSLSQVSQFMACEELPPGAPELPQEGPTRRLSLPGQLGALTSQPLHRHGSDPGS
Upon start of the automated voltage clamp procedure, hERG cells were transferred to a 384 well patch clamp chip (pipette resistance of ˜[…] (2) prefilled with external solution (containing in mM: 143 NaCl, 4 KCl, 2 CaCl2), 1 MgCl2, 5 glucose, 10 HEPES; pH 7.4 (NaOH)). Underpressure was applied underneath the glass bottom of the patch clamp chip to position the hERG cells on the recording sites in the glass bottom of the chip. Following successful cell catch, underpressure was stopped and a seal enhancing solution (containing in mM: 78 NaCl, 60 NMDG, 4 KCl, 10 CaCl2), 1 MgCl2, 5 glucose, 10 HEPES; pH 7.4 (HCl)) was added to the hERG cells to facilitate the formation of stable seals between the membranes of the hERG cells and the glass next to the recording sites. Then, hERG cells were washed several times with wash solution (containing in mM: 87 NaCl, 60 NMDG, 4 KCl, 2 CaCl2), 1 MgCl2, 5 glucose, 10 HEPES; pH 7.4 (HCl)) to remove excess seal enhancing solution. In the meantime, the membrane parts of the hERG cells covering the recording sites were exposed to internal solution (containing in mM: 10 NaCl, 123 KF, 10 EGTA, 10 HEPES; pH 7.2 (KOH)) supplemented with 5-20 μM Escin, and the perforated patch configuration was established. Next, the holding potential was stepwise adjusted to −80 mV, capacitance was compensated, and a series of defined voltage commands was initiated to trigger the hERG current response from the hERG cells (−80 mV for 200 ms, +20 mV for 1000 ms, −40 mV for 500 ms; repeated at a frequency of 0.1 Hz). To determine whether the test item inhibits hERG, different solutions were sequentially applied to the hERG cells: First, a negative control (i.e. wash solution supplemented with 0.3% DMSO and 0.01% HSA) was applied for at least 3 min to investigate the basic electrophysiological properties of the hERG cells as well as define their standard current response. Next, a solution containing the test item at a final concentration of (0.1, 1, or 10) μM was applied for 10 min to measure eventual inhibitory effects of the test item on the hERG current (—the test item solution was produced from a 10 mM DMSO stock by using an automated pipetting device and sequential dilution). Finally, a positive control (i.e. wash solution supplemented with 0.3% DMSO, 0.01% HSA, and 10 μM quinidine) was added to the cells for ˜3 min to block the hERG current and, thereby, define the maximum inhibition. For data analysis, experimental results were processed using the automated patch clamp device-specific software as well as a custom-made software, and TIBCO Spotfire. For each successful recording, hERG tail current amplitudes were averaged from three consecutive current responses at the end of the negative control phase, test item phase, and positive control phase, respectively. Resulting mean hERG tail current amplitudes were normalized to the mean hERG tail current amplitude at the end of the negative control phase with nominal 0% inhibition as well as the hERG tail current amplitude at the end of the positive control phase with nominal 100% inhibition. Then, the effect of the test item was calculated as a percentage inhibition value at the test item concentration applied. Finally, percentage inhibition values from all successful recordings at a particular test item concentration were averaged and combined to construct a standard sigmoidal dose response curve, determine the half maximal inhibitory concentration (IC50) of the test item as well as extrapolate its IC20.

Consider `Cc1nc(CC(=O)Nc2cc(-c3[nH]c4cccnc4c3-c3ccccn3)ccn2)cs1` [Example 3, 2-(2-methylthiazol-4-yl)-N-[4-[3-(2-pyridyl)-^1H-pyrrolo[3,2-b]pyridin-2-yl]-2-pyridyl]acetamide], for which the IC50 on human CSNK1A1 was 1.81 nM; in assay [1], 5.98 µM.

Turning to `O=C(Cc1cnco1)Nc1cc(-c2[nH]c3cccnc3c2-c2ccccn2)ccn1` [Example 4], in assay [1], the IC50 is more than 10 µM.

As for `O=C(Cc1cnc2ccccc2n1)Nc1cc(-c2[nH]c3cccnc3c2-c2ccccn2)ccn1` [Example 6, N-[4-[3-(2-pyridyl)-^1H-pyrrolo[3,2-b]pyridin-2-yl]-2-pyridyl]-2-quinoxalin-2-yl-acetamide], the IC50 on human CSNK1A1 stood at 1.1 nM; in assay [1], 5.35 µM.

Turning to `O=C(Cc1cc2ccccn2n1)Nc1cc(-c2[nH]c3cccnc3c2-c2ccccn2)ccn1` [Example 15, 2-pyrazolo[1,5-a]pyridin-2-yl-N-[4-[3-(2-pyridyl)-^1H-pyrrolo[3,2-b]pyridin-2-yl]-2-pyridyl]acetamide], the IC50 at human CSNK1A1 was found to be 1.07 nM; in assay [1], 1.45 µM.

As for `Cc1nc(C)c(CC(=O)Nc2cc(-c3[nH]c4cccnc4c3-c3ccccn3)ccn2)s1` [Example 18, 2-(2,4-dimethylthiazol-5-yl)-N-[4-[3-(2-pyridyl)-^1H-pyrrolo[3,2-b]pyridin-2-yl]-2-pyridyl]acetamide], the figures for the IC50 (on human CSNK1A1; in assay [1]) were 1.46 nM and 2.05 µM, respectively.

Regarding `Cn1nc(CC(=O)Nc2cc(-c3[nH]c4cccnc4c3-c3ccccn3)ccn2)cc1C(F)(F)F` [Example 21, 2-[1-methyl-5-(trifluoromethyl)pyrazol-3-yl]-N-[4-[3-(2-pyridyl)-^1H-pyrrolo[3,2-b]pyridin-2-yl]-2-pyridyl]acetamide], the IC50 is 1.62 nM at human CSNK1A1 and 0.81 µM in assay [1].

For the compound `CC(C)n1ccc(CC(=O)Nc2cc(-c3[nH]c4cccnc4c3-c3ccccn3)ccn2)n1` [Example 28, 2-(1-isopropylpyrazol-3-yl)-N-[4-[3-(2-pyridyl)-^1H-pyrrolo[3,2-b]pyridin-2-yl]-2-pyridyl]acetamide], the IC50 was 2.28 nM at human CSNK1A1 and 8.69 µM in assay [1].
